This note sets out measurements from patent publication EP2518054A1, “AMIDE COMPOUND” (Takeda Pharmaceutical Company Limited, priority 2009, dated 2011).

The EC50 is the concentration at which the effect is half-maximal.

The target in the assay is T1, human GPR52 (Homo sapiens, UniProt Q9Y2T5).
T1 construct: expressed in transfected cells; host or cells: CHO(dhfr-) cells
The experiment in a line: Increase of intracellular cAMP concentration in human GPR52-expressing CHO cell (AlphaScreen cAMP assay). Type of assay: cell-based. As to conditions: human GPR52-expressing CHO(dhfr-) cells; for activity at 1 µM: CHO, read-out: GPR52 agonist activity (%); for EC50: concentration of the test compound at which it shows 50% activity, read-out: GPR52 agonist activity EC50. How it is done:
Increase of intracellular cAMP concentration in human GPR52-expressing CHO cell
Using OptiPlate-384 (PerkinElmer Inc.), 1×10^4 human GPR52-expressing CHO(dhfr-) cells were incubated together with various concentration(10^-5µM - 10µm) of a test compound in an assay buffer (30 µL, HBSS (containing Ca^2+ and Mg^2+), 0.5% BSA, 100 µM IBMX, 100 µM Ro20-1724, 5 mM HEPES (pH 7.55)) at 37°C for 30 min. Thereafter, according to the protocol of AlphaScreen CAMP Assay Kit (PerkinElmer Inc.), the intracellular cAMP concentration was measured by EnVision (PerkinElmer Inc.). The GPR52 agonist activity was calculated, assuming the intracellular cAMP concentration in the presence of […] N-(2-hydroxyethyl)-3-[2-[3-(trifluoromethyl)benzyl]-1-benzofuran-4-yl]benzamide (Reference Example 79) to be 100% and assuming the intracellular cAMP concentration when DMSO was added instead of the test compound to be 0%.
A general note: Alpha assays give light when donor and acceptor beads are brought close together.

Setting [1] is: 1µM test compound, 100% = cAMP with 1 µM Reference Example 79, 0% = DMSO, 37°C, 30 min.

T1 sequence (Q9Y2T5 whole entry): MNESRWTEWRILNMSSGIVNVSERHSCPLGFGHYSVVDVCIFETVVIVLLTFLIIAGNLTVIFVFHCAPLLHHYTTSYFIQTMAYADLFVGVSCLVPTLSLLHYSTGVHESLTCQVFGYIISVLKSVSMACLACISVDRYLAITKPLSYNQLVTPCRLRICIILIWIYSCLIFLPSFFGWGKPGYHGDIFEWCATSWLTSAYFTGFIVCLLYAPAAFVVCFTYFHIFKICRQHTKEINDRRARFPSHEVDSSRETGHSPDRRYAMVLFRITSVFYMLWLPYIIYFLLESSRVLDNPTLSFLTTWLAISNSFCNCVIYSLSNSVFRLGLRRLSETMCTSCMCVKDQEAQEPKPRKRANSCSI

`Cc1nn(-c2cccc3cc(Cc4cc(F)cc(Cl)c4)sc23)c(C)c1C(=O)NCCO` [Example 56, 1-[2-(3-chloro-5-fluorobenzyl)-1-benzothiophen-7-yl]-N-(2-hydroxyethyl)-3,5-dimethyl-1H-pyrazole-4-carboxamide]: the EC50 turned out to be 6.9 nM. The activity at 1 µM under setting [1] came out at 105%. In the case of `COCCNC(=O)c1c(C)nn(-c2cccc3cc(Cc4cc(F)cc(Cl)c4)sc23)c1C` [Example 57, 1-[2-(3-chloro-5-fluorobenzyl)-1-benzothiophen-7-yl]-N-(2-methoxyethyl)-3,5-dimethyl-1H-pyrazole-4-carboxamide], the activity at 1 µM under setting [1] was determined as 96%.

As for `Cc1nn(-c2ccc(F)c3cc(Cc4cc(F)cc(Cl)c4)sc23)c(C)c1C(=O)NCC(N)=O` [Example 59, N-(2-amino-2-oxoethyl)-1-[2-(3-chloro-5-fluorobenzyl)-4-fluoro-1-benzothiophen-7-yl]-3,5-dimethyl-1H-pyrazole-4-carboxamide], the activity at 1 µM under setting [1] was determined as 93%. Regarding `Cc1nn(-c2ccc(F)c3cc(Cc4cc(F)cc(Cl)c4)sc23)c(C)c1C(=O)NCCO` [Example 60, 1-[2-(3-chloro-5-fluorobenzyl)-4-fluoro-1-benzothiophen-7-yl]-N-(2-hydroxyethyl)-3,5-dimethyl-1H-pyrazole-4-carboxamide], the activity at 1 µM under setting [1] turned out to be 99%. Regarding `Cc1nn(-c2ccc(F)c3cc(Cc4cccc(C(F)(F)F)c4)sc23)c(C)c1C(N)=O` [Example 61, 1-[4-fluoro-2-[3-(trifluoromethyl)benzyl]-1-benzothiophen-7-yl]-3,5-dimethyl-1H-pyrazole-4-carboxamide], the activity at 1 µM under setting [1] is 93%. For the molecule `Cc1nn(-c2ccc(F)c3cc(Cc4cccc(C(F)(F)F)c4)sc23)c(C)c1C(=O)NCCO` [Example 62, 1-[4-fluoro-2-[3-(trifluoromethyl)benzyl]-1-benzothiophen-7-yl]-N-(2-hydroxyethyl)-3,5-dimethyl-1H-pyrazole-4-carboxamide], the activity at 1 µM under setting [1] was determined as 105%.

Take `Cc1nn(-c2cccc3cc(Cc4cccc(C(F)(F)F)c4)sc23)c(CO)c1C(=O)NCC(N)=O` [Example 63, N-(2-amino-2-oxoethyl)-5-(hydroxymethyl)-3-methyl-1-[2-[3-(trifluoromethyl)benzyl]-1-benzothiophen-7-yl]-1H-pyrazole-4-carboxamide]: the activity at 1 µM under setting [1] was 94%. On to `Cc1nn(-c2cccc3cc(Cc4cccc(C(F)(F)F)c4)sc23)c(CO)c1C(N)=O` [Example 64, 5-(hydroxymethyl)-3-methyl-1-[2-[3-(trifluoromethyl)benzyl]-1-benzothiophen-7-yl]-1H-pyrazole-4-carboxamide], for which the EC50 was 18 nM. For the same molecule, the activity at 1 µM under setting [1] was 97%. Take `COCCNC(=O)c1c(C)nn(-c2cccc3cc(Cc4cccc(C(F)(F)F)c4)sc23)c1CO` [Example 66, 5-(hydroxymethyl)-N-(2-methoxyethyl)-3-methyl-1-[2-[3-(trifluoromethyl)benzyl]-1-benzothiophen-7-yl]-1H-pyrazole-4-carboxamide]: under setting [1], the activity at 1 µM is 89%.

On to `Cc1c(C(=O)NCCO)c(CO)nn1-c1cccc2cc(Cc3cccc(C(F)(F)F)c3)sc12` [Example 67, N-(2-hydroxyethyl)-3-(hydroxymethyl)-5-methyl-1-[2-[3-(trifluoromethyl)benzyl]-1-benzothiophen-7-yl]-1H-pyrazole-4-carboxamide], for which the activity at 1 µM under setting [1] worked out at 83%. On to `Cc1c(C(=O)NCC(N)=O)c(CO)nn1-c1cccc2cc(Cc3cccc(C(F)(F)F)c3)sc12` [Example 68, N-(2-amino-2-oxoethyl)-3-(hydroxymethyl)-5-methyl-1-[2-[3-(trifluoromethyl)benzyl]-1-benzothiophen-7-yl]-1H-pyrazole-4-carboxamide], for which the EC50 worked out at 170 nM. Under setting [1], the activity at 1 µM was determined as 88%. Take `Cc1c(C(N)=O)c(CO)nn1-c1cccc2cc(Cc3cccc(C(F)(F)F)c3)sc12` [Example 69, 3-(hydroxymethyl)-5-methyl-1-[2-[3-(trifluoromethyl)benzyl]-1-benzothiophen-7-yl]-1H-pyrazole-4-carboxamide]: the activity at 1 µM under setting [1] amounted to 78%. Consider `COCc1c(C(=O)NCCO)c(C)nn1-c1cccc2cc(Cc3cccc(C(F)(F)F)c3)sc12` [Example 70, N-(2-hydroxyethyl)-5-(methoxymethyl)-3-methyl-1-[2-[3-(trifluoromethyl)benzyl]-1-benzothiophen-7-yl]-1H-pyrazole-4-carboxamide], for which the activity at 1 µM under setting [1] came to 91%. Regarding `Cc1nn(-c2ccc(F)c3cc(Cc4cccc(C(F)(F)F)c4)sc23)c(CO)c1C(=O)NCCO` [Example 71, 1-[4-fluoro-2-[3-(trifluoromethyl)benzyl]-1-benzothiophen-7-yl]-N-(2-hydroxyethyl)-5-(hydroxymethyl)-3-methyl-1H-pyrazole-4-carboxamide], the EC50 turned out to be 27 nM. Also, the activity at 1 µM under setting [1] amounted to 114%. As for `Cc1nn(-c2ccc(F)c3cc(Cc4cccc(C(F)(F)F)c4)sc23)c(CO)c1C(=O)NCC(N)=O` [Example 72, N-(2-amino-2-oxoethyl)-1-[4-fluoro-2-[3-(trifluoromethyl)benzyl]-1-benzothiophen-7-yl]-5-(hydroxymethyl)-3-methyl-1H-pyrazole-4-carboxamide], the activity at 1 µM under setting [1] came out at 96%.

For the molecule `Cc1nn(-c2ccc(F)c3cc(Cc4cccc(C(F)(F)F)c4)sc23)c(CO)c1C(N)=O` [Example 73, 1-[4-fluoro-2-[3-(trifluoromethyl)benzyl]-1-benzothiophen-7-yl]-5-(hydroxymethyl)-3-methyl-1H-pyrazole-4-carboxamide], under setting [1], the activity at 1 µM stood at 97%. The same measure, in the same setting: the same measure for `Cc1nn(-c2cccc3oc(Cc4cccc(C(F)(F)F)c4)cc23)c(C)c1C(=O)NCC(N)=O` [Example 74, N-(2-amino-2-oxoethyl)-3,5-dimethyl-1-[2-[3-(trifluoromethyl)benzyl]-1-benzofuran-4-yl]-1H-pyrazole-4-carboxamide]: 98%. Consider `Cc1nn(-c2cccc3oc(Cc4cccc(C(F)(F)F)c4)cc23)c(C)c1C(=O)NCCO` [Example 75, N-(2-hydroxyethyl)-3,5-dimethyl-1-[2-[3-(trifluoromethyl)benzyl]-1-benzofuran-4-yl]-1H-pyrazole-4-carboxamide], for which the EC50 is 30 nM. Besides, the activity at 1 µM under setting [1] came out at 101%. Consider `Cc1nn(-c2cccc3oc(Cc4cccc(C(F)(F)F)c4)cc23)c(C)c1C(N)=O` [Example 76, 3,5-dimethyl-1-[2-[3-(trifluoromethyl)benzyl]-1-benzofuran-4-yl]-1H-pyrazole-4-carboxamide], for which the activity at 1 µM under setting [1] is 95%. For the molecule `Cc1nn(-c2cccc3nn(Cc4cccc(C(F)(F)F)c4)cc23)c(C)c1C(N)=O` [Example 78, 3,5-dimethyl-1-[2-[3-(trifluoromethyl)benzyl]-2H-indazol-4-yl]-1H-pyrazole-4-carboxamide], the activity at 1 µM under setting [1] was 104%. `Cc1nn(-c2cccc3nn(Cc4cccc(C(F)(F)F)c4)cc23)c(C)c1C(=O)NCCO` [Example 79, N-(2-hydroxyethyl)-3,5-dimethyl-1-[2-[3-(trifluoromethyl)benzyl]-2H-indazol-4-yl]-1H-pyrazole-4-carboxamide]: under setting [1], the activity at 1 µM was 102%. As to `Cc1nn(-c2cccc3nn(Cc4cccc(C(F)(F)F)c4)cc23)c(C)c1C(=O)NCC(N)=O` [Example 80, N-(2-amino-2-oxoethyl)-3,5-dimethyl-1-[2-[3-(trifluoromethyl)benzyl]-2H-indazol-4-yl]-1H-pyrazole-4-carboxamide], the activity at 1 µM under setting [1] came to 98%. Turning to `Cc1nn(-c2cccc3nn(Cc4cc(F)cc(Cl)c4)cc23)c(C)c1C(N)=O` [Example 81, 1-[2-(3-chloro-5-fluorobenzyl)-2H-indazol-4-yl]-3,5-dimethyl-1H-pyrazole-4-carboxamide], under setting [1], the activity at 1 µM was 102%. In the case of `Cc1nn(-c2cccc3nn(Cc4cc(F)cc(Cl)c4)cc23)c(C)c1C(=O)NCCO` [Example 82, 1-[2-(3-chloro-5-fluorobenzyl)-2H-indazol-4-yl]-N-(2-hydroxyethyl)-3,5-dimethyl-1H-pyrazole-4-carboxamide], under setting [1], the activity at 1 µM came out at 105%. As for `Cc1nn(-c2cccc3nn(Cc4cc(F)cc(C(F)(F)F)c4)cc23)c(C)c1C(N)=O` [Example 83, 1-[2-[3-fluoro-5-(trifluoromethyl)benzyl]-2H-indazol-4-yl]-3,5-dimethyl-1H-pyrazole-4-carboxamide], the activity at 1 µM under setting [1] was found to be 104%. As for `Cc1nn(-c2cccc3nn(Cc4cc(F)cc(C(F)(F)F)c4)cc23)c(C)c1C(=O)NCCO` [Example 84, 1-[2-[3-fluoro-5-(trifluoromethyl)benzyl]-2H-indazol-4-yl]-N-(2-hydroxyethyl)-3,5-dimethyl-1H-pyrazole-4-carboxamide], the activity at 1 µM under setting [1] came out at 105%. On to `Cc1nc(-c2cccc3nn(Cc4cc(F)cc(C(F)(F)F)c4)cc23)sc1C(N)=O` [Example 86, 2-[2-[3-fluoro-5-(trifluoromethyl)benzyl]-2H-indazol-4-yl]-4-methyl-1,3-thiazole-5-carboxamide], for which, under setting [1], the “GPR52 agonist activity (%)” value was determined as 102% and the activity at 1 µM was 85%.
